# From patent publication US10149839B2, “Chemical compounds” (AstraZeneca AB, priority 2016, dated 2018)
# Assays:
# [1] = molecular target: estrogen receptor (ERα) in CAMA-1 cells (Homo sapiens (Human), UniProt P03372); assay: Western blotting assay, CAMA-1 cells; type: cell-based; conditions: compound 100 nM, 48 h, normalised to 100 nM fulvestrant (100%)
# [2] = Human plasma protein binding (equilibrium dialysis); type: in vitro ADME; conditions: dialysis 18 hours
# [3] = physchem; conditions: 1-octanol/aqueous buffer, pH 7.4
# [4] = molecular target: T1, Estrogen Receptor (ERα) in MCF-7 cells (Homo sapiens (Human), UniProt P03372); assay: MCF-7 ER down-regulation assay (immuno-fluorescence); type: cell-based; conditions: for IC50: 18-22 hours incubation
# [5] = Thermodynamic solubility (shake flask); type: physicochemical; conditions: aqueous phosphate buffer, 25 °C, pH 7.4, aqueous buffer, thermodynamic from solid, aqueous phosphate buffer pH 7.4, 24 hours
# [6] = molecular target: T1, Estrogen Receptor (ERα) in MCF-7 cells; assay: Western blotting assay, MCF-7 cells; type: cell-based; conditions: compound 100 nM, 48 h, normalised to 100 nM fulvestrant (100%)
# T1 sequence (P03372 whole entry): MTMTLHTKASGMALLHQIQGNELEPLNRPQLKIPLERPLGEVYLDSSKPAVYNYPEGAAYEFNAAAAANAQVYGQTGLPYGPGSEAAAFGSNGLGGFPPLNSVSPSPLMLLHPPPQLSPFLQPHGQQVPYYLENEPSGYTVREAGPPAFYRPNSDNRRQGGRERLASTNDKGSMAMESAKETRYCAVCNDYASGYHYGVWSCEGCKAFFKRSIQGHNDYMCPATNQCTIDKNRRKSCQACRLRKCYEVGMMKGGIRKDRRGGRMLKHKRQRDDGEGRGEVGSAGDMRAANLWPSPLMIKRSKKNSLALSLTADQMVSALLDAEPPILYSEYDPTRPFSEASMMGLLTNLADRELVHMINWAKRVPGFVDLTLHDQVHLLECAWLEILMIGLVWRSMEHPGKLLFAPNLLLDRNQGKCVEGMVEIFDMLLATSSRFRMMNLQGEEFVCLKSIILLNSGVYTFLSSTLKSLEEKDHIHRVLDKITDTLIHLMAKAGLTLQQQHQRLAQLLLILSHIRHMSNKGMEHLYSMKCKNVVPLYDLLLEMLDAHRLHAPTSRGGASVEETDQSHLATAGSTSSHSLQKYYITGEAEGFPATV
# Chain of estrogen receptor (ERα) in CAMA-1 cells (P03372 whole entry): as above
Compound,CAMA1 Western % ER deg vs Fv [1] [%],Human plasma protein binding (% free) [2] [% free],logD [3],IC50 [4] [nM],solubility at 24 h [5] [µM],MCF7 Western % ER deg vs Fv [6] [%],% downregulation ([4]; shown in brackets where not >90%)
"C[C@@H]1Cc2c([nH]c3ccccc23)[C@@H](c2c(F)cc(OCCNCCC(F)F)cc2F)N1CC(C)(C)F [Example 3, N-(2-(3,5-difluoro-4-((1R,3R)-2-(2-fluoro-2-methylpropyl)-3-methyl-2,3,4,9-tetrahydro-1H-pyrido[3,4-b]indol-1-yl)phenoxy)ethyl)-3,3-difluoropropan-1-amine]",0,<2.6,> 4.3,0.14,4,64,
"COc1cc(OCCNCCCF)ncc1[C@@H]1c2[nH]c3ccccc3c2C[C@@H](C)N1CC1(F)COC1 [Example 7, 3-fluoro-N-(2-((5-((1R,3R)-2-((3-fluorooxetan-3-yl)methyl)-3-methyl-2,3,4,9-tetrahydro-1H-pyrido[3,4-b]indol-1-yl)-4-methoxypyridin-2-yl)oxy)ethyl)propan-1-amine]",48,17,2.3,0.51,> 1000,74,
"COc1cc(OCCNCCCF)ccc1[C@@H]1c2[nH]c3ccccc3c2C[C@@H](C)N1CC1(F)COC1 [Example 8, 3-fluoro-N-(2-(4-((1R,3R)-2-((3-fluorooxetan-3-yl)methyl)-3-methyl-2,3,4,9-tetrahydro-1H-pyrido[3,4-b]indol-1-yl)-3-methoxyphenoxy)ethyl)propan-1-amine]",38,,,,,77,
"C[C@@H]1Cc2c([nH]c3ccccc23)[C@@H](c2c(F)cc(NCCNCCCF)cc2F)N1CC1(F)CC1 [Example 9, N^1-(3,5-difluoro-4-((1R,3R)-2-((1-fluorocyclopropyl)methyl)-3-methyl-2,3,4,9-tetrahydro-1H-pyrido[3,4-b]indol-1-yl)phenyl)-N^2-(3-fluoropropyl)ethane-1,2-diamine]",80,,,0.22,,82,
"COc1cc(OCCNCCCF)ccc1[C@@H]1c2[nH]c3ccccc3c2C[C@@H](C)N1CC1(F)CC1 [Example 11, 3-fluoro-N-(2-(4-((1R,3R)-2-((1-fluorocyclopropyl)methyl)-3-methyl-2,3,4,9-tetrahydro-1H-pyrido[3,4-b]indol-1-yl)-3-methoxyphenoxy)ethyl)propan-1-amine]",54,,,0.46,,81,
"COCC(F)(F)CN1[C@H](c2c(F)cc(OCCNCCCF)cc2F)c2[nH]c3ccccc3c2C[C@H]1C [Example 14, N-(2-(4-((1R,3R)-2-(2,2-difluoro-3-methoxypropyl)-3-methyl-2,3,4,9-tetrahydro-1H-pyrido[3,4-b]indol-1-yl)-3,5-difluorophenoxy)ethyl)-3-fluoropropan-1-amine]",31,0.9,3.6,0.64,10,61,(89%)
"COc1cc(OCCNCCCF)cnc1[C@@H]1c2[nH]c3ccccc3c2C[C@@H](C)N1CC(C)(C)F [Example 35, 3-fluoro-N-(2-((6-((1S,3R)-2-(2-fluoro-2-methylpropyl)-3-methyl-2,3,4,9-tetrahydro-1H-pyrido[3,4-b]indol-1-yl)-5-methoxypyridin-3-yl)oxy)ethyl)propan-1-amine]",82,2.2,3.8,0.28,99,81,
"COc1cc(OCCNCCCF)ncc1[C@@H]1c2[nH]c3ccccc3c2C[C@@H](C)N1CC(C)(C)F [Example 36, 3-fluoro-N-(2-((5-((1R,3R)-2-(2-fluoro-2-methylpropyl)-3-methyl-2,3,4,9-tetrahydro-1H-pyrido[3,4-b]indol-1-yl)-4-methoxypyridin-2-yl)oxy)ethyl)propan-1-amine]",66,2.1,3.5,0.14,291,83,
"C[C@@H]1Cc2c([nH]c3ccccc23)[C@@H](c2cnc(OCCNCCCF)cn2)N1CC(C)(C)F [Example 38, 3-fluoro-N-(2-((5-((1S,3R)-2-(2-fluoro-2-methylpropyl)-3-methyl-2,3,4,9-tetrahydro-1H-pyrido[3,4-b]indol-1-yl)pyrazin-2-yl)oxy)ethyl)propan-1-amine]",75,1.3,3.3,0.43,227,88,
"COc1cc(OCCNCCCF)ncc1[C@@H]1c2[nH]c3ccccc3c2C[C@@H](C)N1CC(F)(F)F [Example 41, 3-Fluoro-N-(2-((4-methoxy-5-((1R,3R)-3-methyl-2-(2,2,2-trifluoroethyl)-2,3,4,9-tetrahydro-1H-pyrido[3,4-b]indol-1-yl)pyridin-2-yl)oxy)ethyl)propan-1-amine]",89,2.4,3.2,0.14,389,74,
"C[C@@H]1Cc2c([nH]c3ccccc23)[C@@H](c2ccc(OCCNCCCF)cc2F)N1CC(F)F [Example 48, N-(2-(4-((1R,3R)-2-(2,2-difluoroethyl)-3-methyl-2,3,4,9-tetrahydro-1H-pyrido[3,4-b]indol-1-yl)-3-fluorophenoxy)ethyl)-3-fluoropropan-1-amine]",65,,3.4,0.26,94,58,
"C[C@@H]1Cc2c([nH]c3ccccc23)[C@@H](c2c(F)cc(N(C)CCNCCCF)cc2F)N1CC(F)F [Example 49, N1-(4-((1R,3R)-2-(2,2-difluoroethyl)-3-methyl-2,3,4,9-tetrahydro-1H-pyrido[3,4-b]indol-1-yl)-3,5-difluorophenyl)-N2-(3-fluoropropyl)-N1-methylethane-1,2-diamine]",95,0.40,,0.25,70,100,
"C[C@@H]1Cc2c([nH]c3ccccc23)[C@@H](c2c(F)cc(NCCNCCCF)cc2F)N1CC(F)F [Example 54, N1-(4-((1R,3R)-2-(2,2-difluoroethyl)-3-methyl-2,3,4,9-tetrahydro-1H-pyrido[3,4-b]indol-1-yl)-3,5-difluorophenyl)-N2-(3-fluoropropyl)ethane-1,2-diamine]",92,1.3,,0.13,242,87,
"C[C@@H]1Cc2c([nH]c3ccccc23)[C@@H](c2ccc(OCCNCCCF)cc2)N1CC(F)F [Example 56, N-(2-(4-((1R,3R)-2-(2,2-difluoroethyl)-3-methyl-2,3,4,9-tetrahydro-1H-pyrido[3,4-b]indol-1-yl)phenoxy)ethyl)-3-fluoropropan-1-amine]",66,,3.3,0.4,184,74,
